Experimental data from US8231858B2, “Diagnostic imaging agents with MMP inhibitory activity” (GE Healthcare Limited, priority 2003, dated 2012).

What was measured:
MMP-2 = target: T1, MMP-2 (Homo sapiens, UniProt P08253); experiment: Assay for MMP-2 inhibitory activity (fluorogenic substrate); format: biochemical; conditions: MMP-2 1 nM, preincubation 37° C. for 30 min, pH 7.5
T1 sequence (P08253 110-660): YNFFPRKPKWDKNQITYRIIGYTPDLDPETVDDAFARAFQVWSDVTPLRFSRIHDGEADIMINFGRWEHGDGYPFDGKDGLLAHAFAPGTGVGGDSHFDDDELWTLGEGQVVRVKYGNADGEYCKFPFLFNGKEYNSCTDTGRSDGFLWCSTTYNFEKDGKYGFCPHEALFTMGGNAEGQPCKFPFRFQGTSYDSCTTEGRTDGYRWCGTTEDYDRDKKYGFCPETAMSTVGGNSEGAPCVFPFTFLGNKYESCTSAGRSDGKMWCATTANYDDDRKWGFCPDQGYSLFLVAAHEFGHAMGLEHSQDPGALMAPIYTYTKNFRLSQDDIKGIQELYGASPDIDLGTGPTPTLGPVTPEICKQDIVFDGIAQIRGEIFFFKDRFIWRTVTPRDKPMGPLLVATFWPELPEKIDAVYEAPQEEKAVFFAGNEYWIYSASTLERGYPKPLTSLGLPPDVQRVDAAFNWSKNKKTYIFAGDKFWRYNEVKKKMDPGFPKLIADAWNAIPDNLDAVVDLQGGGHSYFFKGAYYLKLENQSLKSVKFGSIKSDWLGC
Description: (§1) The synthetic broad-spectrum fluorogenic substrate (7-methoxycoumarin-4-yl) acetyl pro-Leu-Gly-Leu-(3-(2,4-dinitrophenyl)-L-2,3-diamino-propionyl)-Ala-Arg-NH2 (R & D Systems) was used to assay MMP-2 and MMP-9 activity as described previously [Huang et al J. Biol. Chem. 272 22086-22091 (1997)]. […] An aliquot (10 μl) of substrate (5 μM) was then added to […] of preincubated MMP/compound mixture, and activity was determined at 37° C. by following product release with time. The fluorescence changes were monitored using a Fusion Universal Microplate Analyzer (Packard Bioscience) with excitation and emission wavelengths set to 330 and 390 nm, respectively for MMP-2 and MMP-9. Inhibited rates were measured from the initial 10 min of the reaction profile where product release was linear with time. Nonlinear regression analysis was performed using the XMGRACE 5.18 software under linux.

MMP-9 = MMP-9 (Homo sapiens, UniProt P14780); experiment: Assay for MMP-9 inhibitory activity (fluorogenic substrate); format: biochemical; conditions: MMP-9 2 nM, preincubation 37° C. for 30 min, pH 7.5
Sequence of MMP-9 (P14780 94-707, species assumed): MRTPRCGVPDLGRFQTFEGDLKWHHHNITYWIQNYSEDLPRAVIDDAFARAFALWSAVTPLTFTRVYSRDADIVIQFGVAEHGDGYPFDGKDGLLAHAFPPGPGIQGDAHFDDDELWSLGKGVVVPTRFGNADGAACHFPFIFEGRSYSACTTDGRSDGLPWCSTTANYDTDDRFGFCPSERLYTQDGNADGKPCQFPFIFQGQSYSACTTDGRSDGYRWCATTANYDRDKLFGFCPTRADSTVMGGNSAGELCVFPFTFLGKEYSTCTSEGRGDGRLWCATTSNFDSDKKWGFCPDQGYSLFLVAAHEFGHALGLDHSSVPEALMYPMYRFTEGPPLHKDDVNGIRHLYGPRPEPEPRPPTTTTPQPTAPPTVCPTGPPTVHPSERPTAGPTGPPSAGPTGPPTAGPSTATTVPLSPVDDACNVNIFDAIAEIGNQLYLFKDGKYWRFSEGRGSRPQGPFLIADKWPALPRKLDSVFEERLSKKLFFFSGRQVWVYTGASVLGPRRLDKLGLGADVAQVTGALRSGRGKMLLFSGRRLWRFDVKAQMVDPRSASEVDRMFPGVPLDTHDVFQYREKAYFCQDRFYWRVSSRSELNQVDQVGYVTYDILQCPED
Description: as §1

IC50 (MMP-2)	IC50 (MMP-9)	melting point	Compound
0.32 µM	0.153 µM	201 to 203 °C	CC(C)[C@H](C(=O)NO)N(Cc1cccnc1)S(=O)(=O)c1ccc(O)c(I)c1 [Compound 8]
0.0025 µM	0.0046 µM	169 °C	CC(C)C(C(=O)NO)N(Cc1cccnc1)S(=O)(=O)c1ccc(I)cc1 (centres unmarked) [Compound 9]
0.0575 µM	0.257 µM	–	CC(C)[C@H](C(=O)NO)N(Cc1cccnc1)S(=O)(=O)c1ccc(O)cc1 [Compound 13]
0.0162 µM	0.076 µM	169 to 170 °C	CC(C)[C@H](C(=O)NO)N(Cc1cccnc1)S(=O)(=O)c1ccc(Br)cc1 [Compound 14]
